Activity calls are given as the source filed them. Cut-off read from the data, not from the text of the source: actives have a measured IC50 and inactives only a lower limit.
Each molecule was assayed against Envelope glycoprotein gp160 (Human immunodeficiency virus 1, UniProt Q6QLK5) (assay: cell-free HIV fusion peptide-binding blockers – biochemical, uHTS, fluorescence dequenching, […] (AID 1986)).
Sequence of Envelope glycoprotein gp160 (Q6QLK5 whole entry, the tested form may be a part): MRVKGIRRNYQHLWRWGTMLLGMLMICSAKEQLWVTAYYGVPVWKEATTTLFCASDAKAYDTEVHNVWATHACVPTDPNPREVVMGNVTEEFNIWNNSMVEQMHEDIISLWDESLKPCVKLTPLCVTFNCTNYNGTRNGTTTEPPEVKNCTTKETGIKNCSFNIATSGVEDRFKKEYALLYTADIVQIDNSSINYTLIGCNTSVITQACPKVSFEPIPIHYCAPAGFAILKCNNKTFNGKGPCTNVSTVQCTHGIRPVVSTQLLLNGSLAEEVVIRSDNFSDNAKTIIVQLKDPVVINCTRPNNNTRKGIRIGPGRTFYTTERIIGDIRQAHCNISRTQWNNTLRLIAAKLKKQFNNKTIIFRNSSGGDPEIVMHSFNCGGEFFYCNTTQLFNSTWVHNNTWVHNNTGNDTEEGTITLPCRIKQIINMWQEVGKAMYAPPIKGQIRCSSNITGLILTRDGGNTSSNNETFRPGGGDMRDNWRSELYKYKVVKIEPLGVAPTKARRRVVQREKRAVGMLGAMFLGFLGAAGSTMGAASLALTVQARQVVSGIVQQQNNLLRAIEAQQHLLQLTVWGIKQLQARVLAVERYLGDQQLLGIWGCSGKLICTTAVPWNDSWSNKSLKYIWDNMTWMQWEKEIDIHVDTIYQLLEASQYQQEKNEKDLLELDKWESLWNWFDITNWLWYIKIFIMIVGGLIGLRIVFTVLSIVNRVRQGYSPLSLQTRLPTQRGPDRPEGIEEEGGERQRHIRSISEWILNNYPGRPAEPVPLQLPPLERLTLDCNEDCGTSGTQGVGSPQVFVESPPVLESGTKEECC
For `O=C(O)c1cc(-c2ccc(/C=C3\NC(=O)N(c4ccc(Cl)cc4)C3=O)o2)ccc1Cl`, the IC50 was 22.6 µM (active).
With `O=c1cc(-c2ccccc2Cl)oc2c(NS(=O)(=O)c3cc(Cl)cc(Cl)c3O)ccc(O)c12` the IC50 was 9.18 µM (active).
For `Cc1cc(N2C(=O)C(O)=C(C(=O)c3cc4ccccc4o3)C2c2cccc(Br)c2)no1` (stereo not given), the IC50 was 16.4 µM (active).
For `CCOc1cc(/C=C2/C(=N)N3C(=NC2=O)SN=C3S(C)(=O)=O)ccc1OS(=O)(=O)c1ccccc1`, the IC50 was 12.2 µM (active).
For `O=C1NC(=S)N(c2ccc(F)cc2)C(=O)/C1=C\c1ccoc1`, the IC50 was 5.78 µM (active).

Reference: ChEMBL document CHEMBL1201862, “PubChem BioAssay data set” (2004)
